From patent publication US8198330B2, “Therapeutic or prophylactic agent for diabetes, obesity, dyslipidemia or metabolic syndrome comprising benzylamine derivative or pharmaceutically acceptable acid addition salt thereof” (Toray Industries, Inc., priority 2008, dated 2012)

Columns and labels:
conscious rat = experiment: Effect on the cardiovascular system (heart rate) of conscious rat; format: in vivo; settings: conscious SD rat, s.c. 1, 3 and 10 mg/kg at 30 minute intervals, FIG. 2
Experimental: SD male rats of 7 weeks of age (Charles River Laboratories Japan Inc.) were purchased and used when they are 8 weeks of age. The rats were anesthetized by intraperitoneal administration of pentobarbital at 60 mg/kg; the back central region and the femoral region were cut open; a polyethylene tube (SP-31, Natsume Seisakusho Co., Ltd.) connected to a polyurethane tube (BC-3.5P, American Access Technologies) was inserted from the back to the femoral region, to place the polyethylene tube in femoral artery. After the femoral region was sutured, a flexible stainless steel pipe containing the polyethylene tube was sutured and fixed to the back skin. Heparin at 100 IU to 200 IU/mL was filled into the polyethylene tube and the polyurethane tube for prevention of blood clotting. After surgical operation, the rats were placed and grown back in 5-compartment wire mesh cage. […]
The heart rate of the rats was determined, by sending the pulse wave obtained in the blood pressure amplifier (AP-641G, Nihon Kohden Corp.) attached to the Life Kit for monitoring blood pressure to an instantaneous heart rate meter unit (AT-601T, Nihon Kohden Corp.). The heart rate was recorded on the chart paper in a thermal multirecorder (RIA-1300A, Nihon Kohden Corp.) by using a polygraph (RM-6000, Nihon Kohden Corp.). […]

DIO mice = experiment: Insulin tolerance test (ITT) in DIO mice; format: in vivo, mouse; settings: day 27, insulin 0.3 unit/kg i.p., FIG. 1
Experimental: The blood was collected (approximately 70 μL) from the same site by using a heparin-treated capillary (Hematokrit Kapilaren, 75 μL, […] LABORGERATE) and the collected blood was centrifuged (12,000 rpm, 7 min, 4° C.) in a hematocrit centrifuge (KUBOTA3100, Kubota Corp.) and the plasma was stored, as it is frozen in an Eppendorf tube, until it is used for measurement of triglyceride. The triglyceride measurement was carried out by using Triglyceride E-Test Wako (Wako Pure Chemical Industries). Four μL of the sample was added to 250 μL of the coloring liquid, after reaction at 37° C. for 1 hour, and the absorbance (595 nm) of the mixture was determined by using a microplate reader (Bio-Rad, Model 680). Separately, insulin tolerance test (ITT) was performed on day 27.
The mouse was left non-feeded in a fasting cage after drug administration on day 26. In the morning of the day of ITT (day 27), the fasting blood sugar was determined by a method identical with that used for blood sugar measurement on day 26. The blood sugar was measured once again in the afternoon of the same day; an insulin solution was administered intraperitoneally (0.3 unit/5 mL/kg) immediately after then; and the blood sugar was measured 30, 60, 120 and 180 minutes after insulin administration since then. […]
The insulin level was measured by using an insulin measurement kit (Lebis Insulin Mouse U, Shibayagi). […]

## COc1cc(CN[C@@H](C)[C@H](O)c2ccc(O)c(NS(C)(=O)=O)c2)cc(OC)c1 [Example 1, N-(5-((1R,2S)-2-(3,5-Dimethoxybenzylamino)-1-hydroxypropyl)-2-hydroxyphenyl)methanesulfonamide]
Conscious rat
  influence on heart rate: did not have any influence on rat heart rate
DIO mice
  blood sugar after insulin administration (ITT) versus vehicle group: declined statistically significantly
